{"source": "patent US20100022509A1", "about": "“Inhibitors of MshC and Homologs Thereof, and Methods of Identifying Same” (priority 2006, published 2010)", "assay_type_in_all_cases": "cell-based", "key": {"[1]": {"tested_on": "Enterococcus faecalis ATCC 29212", "experiment": "MIC by broth dilution assay"}, "[2]": {"tested_on": "M. smegmatis mc^2155", "experiment": "Inhibitor studies with Mycobacterium smegmatis: growth", "method": "(§1) Inhibitor studies with Mycobaterium smagmatis. An exponential culture of M. smegmatis mc^2155 in Middlebrook 7H9 medium containing 0.05% Tween 80 and 1% glucose was used to inoculate a culture in the same medium but with 0.4% glucose to A600=0.05. The inhibitor NTF1836 was added from a stock solution in Me2SO at 0, 10, 20, 30 and 40 μM to duplicate 40 ml aliquots of the culture in 125 ml flasks to produce a final Me2SO content of ≦0.04%. The cells were incubated at 37° C. and 250 rpm. At A600˜0.25 and subsequent doublings in cell density, a volume of culture was removed sufficient to provide analysis of GlcN-Ins and MSH as described above."}, "[3]": {"tested_on": "MshC within M. tuberculosis", "experiment": "Mycothiol and GlcN-Ins content of M. tuberculosis, day 7"}, "[4]": {"tested_on": "mycothiol biosynthesis in M. smegmatis mc^2155", "experiment": "Inhibitor studies with Mycobacterium smegmatis: GlcN-Ins and MSH content by HPLC", "conditions": "30 μM, after 12 h", "method": "as §1"}, "[5]": {"tested_on": "M. tuberculosis", "experiment": "Growth of M. tuberculosis in broth culture, 7 days (optical density, plate counts)", "conditions": "for OD600: day 7, starting OD600 0.08"}, "[6]": {"tested_on": "Mycobacterium smegmatis mc^2155 ATCC 700084", "experiment": "MIC by broth dilution assay"}, "[7]": {"tested_on": "Staphylococcus aureus", "experiment": "MIC by broth dilution assay", "conditions": "for MIC: n = 3"}, "[8]": {"tested_on": "M. smegmatis", "experiment": "Growth of M. smegmatis parent and MSH mutant strains in the presence of INH", "method": "Using the parental strain mc^2155, the Myco504 mutant in mshB that produces 5-10% of normal MSH in exponential growth, and the mutant strain 49 that produces 0% of normal MSH, the effect of 0-30 μg per ml INH upon growth was examined. […] This is seen in FIG. 13 for growth in the presence of 10 μg per ml INH."}}}
{"compound": "CN(CCCNC(=O)c1ccc2c(c1)N(Cc1cccc(Cl)c1)C(=O)c1ccccc1[S+]2[O-])C1CCCCC1", "note": "(centres unmarked) [NTF1836]", "values": [{"measurement": "growth inhibition, in words", "setting": "[1]", "value": "inhibitory"}, {"measurement": "MIC", "setting": "[1]; ATCC29212, Todd Hewitt, n = 3", "value": 64, "unit": "µg/mL"}, {"measurement": "growth rate", "setting": "[2]; 30 μM", "value": "half the normal rate"}, {"measurement": "growth", "setting": "[2]; 40 μM, after 8 h", "value": "completely inhibited"}, {"measurement": "GlcN-Ins", "setting": "[3]; 20 uM", "value": "2.77 ± 0.09", "unit": "nmoles/10^9 bacteria"}, {"measurement": "GlcN-Ins/mycothiol", "setting": "[3]; 20 uM", "value": 0.09}, {"measurement": "mycothiol", "setting": "[3]; 20 uM", "value": "27.8 ± 2.5", "unit": "nmoles/10^9 bacteria"}, {"measurement": "GlcN-Ins", "setting": "[3]; 30 uM", "value": "3.49 ± 0.10", "unit": "nmoles/10^9 bacteria"}, {"measurement": "GlcN-Ins/mycothiol", "setting": "[3]; 30 uM", "value": 0.18}, {"measurement": "mycothiol", "setting": "[3]; 30 uM", "value": "19.1 ± 2.5", "unit": "nmoles/10^9 bacteria"}, {"measurement": "GlcN-Ins", "setting": "[3]; 50 uM", "value": 4.28, "unit": "nmoles/10^9 bacteria"}, {"measurement": "GlcN-Ins/mycothiol", "setting": "[3]; 50 uM", "value": 0.428}, {"measurement": "mycothiol", "setting": "[3]; 50 uM", "value": 10.0, "unit": "nmoles/10^9 bacteria"}, {"measurement": "GlcN-Ins", "setting": "[3]; 75 uM", "value": 4.22, "unit": "nmoles/10^9 bacteria"}, {"measurement": "GlcN-Ins/mycothiol", "setting": "[3]; 75 uM", "value": 1.21}, {"measurement": "mycothiol", "setting": "[3]; 75 uM", "value": 3.5, "unit": "nmoles/10^9 bacteria"}, {"measurement": "GlcN-Ins content", "setting": "[4]", "value": "twice the normal level"}, {"measurement": "OD600", "setting": "[5]; 20 uM", "value": "1.304 ± 0.014"}, {"measurement": "OD600", "setting": "[5]; 30 uM", "value": "0.600 ± 0.049"}, {"measurement": "OD600", "setting": "[5]; 50 uM", "value": 0.271}, {"measurement": "OD600", "setting": "[5]; 75 uM", "value": 0.12}, {"measurement": "IC50", "setting": "[5]; Mycobacterium tuberculosis, 168 h, 7 days, by optical density and by plate counts of viable bacteria, read-out: IC50 for growth inhibition of M. tuberculosis", "value": "20 to 30", "unit": "µM"}, {"measurement": "growth inhibition, in words", "setting": "[6]; M. smegmatis", "value": "inhibitory"}, {"measurement": "MIC", "setting": "[6]; Mycolicibacterium smegmatis, ATCC700084|MC^2155, Middlebrook 7H9 + 1% glucose, n = 3", "value": 16, "unit": "µg/mL"}, {"measurement": "MIC", "setting": "[7]; ATCC25923, Staphylococcus aureus ATCC 25923, TSB", "value": 128, "unit": "µg/mL"}, {"measurement": "growth inhibition, in words", "setting": "[7]; Staphylococcus aureus", "value": "inhibitory"}, {"measurement": "MIC", "setting": "[7]; Staphylococcus aureus RN450, TSB", "value": 64, "unit": "µg/mL"}]}
{"compound": "NNC(=O)c1ccncc1", "note": "[INH, isoniazid]", "values": [{"measurement": "growth of strain 49 (0% MSH)", "setting": "[8]; 2 μg per ml INH and above", "value": "no effect"}, {"measurement": "growth of strain mc^2155", "setting": "[8]; 2 μg per ml INH and above", "value": "became inhibited"}, {"measurement": "growth of strain 49 (0% MSH)", "setting": "[8]; 10 μg per ml INH", "value": "grows at the same rate as in the absence of INH"}, {"measurement": "growth of strain Myco504 (5-10% MSH)", "setting": "[8]; 10 μg per ml INH", "value": "markedly inhibited"}, {"measurement": "growth of strain mc^2155", "setting": "[8]; 10 μg per ml INH", "value": "markedly inhibited"}]}
